Source: article PMC6068282, “In Silico Discovery of Plant-Origin Natural Product Inhibitors of Tumor Necrosis Factor (TNF) and Receptor Activator of NF-κB Ligand (RANKL)” (Frontiers in Pharmacology, 2018)

Molecular target: T1, TNF / human TNF (TNF/TNFR1 ELISA) (Homo sapiens, UniProt P01375)
T1 construct: recombinant human TNF (soluble; biologically active homotrimer); with Tumor necrosis factor receptor superfamily member 1A
Test: ELISA, TNF binding to TNFR1

T1 sequence (P01375 77-233): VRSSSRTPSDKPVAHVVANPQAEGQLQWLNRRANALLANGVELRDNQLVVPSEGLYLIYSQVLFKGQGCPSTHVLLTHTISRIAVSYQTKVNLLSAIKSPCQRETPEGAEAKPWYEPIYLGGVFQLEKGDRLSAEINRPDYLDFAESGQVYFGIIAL

IC50 [µM]	Structure (SMILES)
3.3 ± 0.9	Oc1ccc([C@@H]2c3c(O)cc4c(c3[C@H]3[C@H](c5ccc(O)cc5)c5c(O)cc6c(c5[C@@H]23)[C@@H](c2cc(O)cc(O)c2)[C@H](c2ccc(O)cc2)O6)[C@@H](c2cc(O)cc(O)c2)[C@H](c2ccc(O)cc2)O4)cc1 [A11, (1R,2R,6R,6aR,7R,8R,12R,12aR)-1,7-Bis(3,5-dihydroxyphenyl)-2,6,8,12-tetrakis(4-hydroxyphenyl)-1,2,6,6a,7,8,12,12a-octahydrofuro[2″,3″:6′,7′]indeno[1′,2′:2,3]indeno [5,4-b]furan-5,11-diol]
4.1 ± 1.7	C[C@@H]1O[C@@H](Oc2c(-c3ccc(O)cc3)oc3cc(O)cc(O)c3c2=O)[C@H](O[C@@H]2O[C@H](COC(=O)/C=C/c3ccc(O)cc3)[C@@H](O)[C@H](O)[C@H]2O)[C@H](O)[C@H]1O [A25, [(2R,3S,4S,5R,6S)-6-[(2S,3R,4R,5R,6S)-2-[5,7-dihydroxy-2-(4-hydroxyphenyl)-4-oxochromen-3-yl]oxy-4,5-dihydroxy-6-methyloxan-3-yl]oxy-3,4,5-trihydroxyoxan-2-yl]methyl(E)-3-(4-hydroxyphenyl)prop-2-enoate]
